Assay results published in patent US20020137929A1, “1 - (3-heterocyclylphenyl) isothiourea, -isourea, -guanidine and -amidine herbicidal agents” (Intellectual Property Department, BASF Aktiengesellschaft, priority 1998, published 2002).

How the values were obtained:
ABUTH (Velvetleaf) [1] = assay: Postemergence herbicidal evaluation; assay type: in vivo, Abutilon theophrasti
In short: (§1)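 Visual 0-9 injury score (stand, vigor, malformation, size, chlorosis, appearance vs untreated) taken four to five weeks post-spray, averaged across repeat tests. Test plants about two weeks old; foliar spray of acetone/water (1:1) with 0.5% surfactant delivering ~0.0156-0.500 kg active/ha.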

[2] = system: IPOHE (Morningglory, Ivyleaf); assay: Postemergence herbicidal evaluation; assay type: in vivo, Ipomoea hederacea
In short: as §1

SETVI (Foxtail, Green) = assay: Postemergence herbicidal evaluation; assay type: in vivo, Setaria viridis
In short: as §1

[3] = system: GLXMAW (Soybean, Williams); assay: Postemergence herbicidal evaluation; assay type: in vivo, Glycine max, (L.) Merr. cv Williams
In short: as §1

ZEAMX (Corn, Field) = assay: Postemergence herbicidal evaluation; assay type: in vivo, Zea mays
In short: as §1

ABUTH (Velvetleaf) [4] = assay: Preemergence herbicidal evaluation; assay type: in vivo, Abutilon theophrasti; details: rated 4-5 weeks after treatment
In short: (§2)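 Each species is sown separately in potting soil over roughly an inch of soil before any emergence. The soil surface then receives an aqueous acetone spray delivering about 0.0156 to 0.500 kg/ha of compound. After four to five weeks, injury is scored from 0 to 9 relative to a control.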

AMBEL (Ragweed, Common) = assay: Preemergence herbicidal evaluation; assay type: in vivo, Ambrosia artemisifolia; details: rated 4-5 weeks after treatment
In short: as §2

CASOB (Sicklepod) = assay: Preemergence herbicidal evaluation; assay type: in vivo, Cassia obtusifolia; details: rated 4-5 weeks after treatment
In short: as §2

[5] = system: IPOHE (Morningglory, Ivyleaf); assay: Preemergence herbicidal evaluation; assay type: in vivo, Ipomoea hederacea; details: rated 4-5 weeks after treatment
In short: as §2

ECHCG (Barnyardgrass) = assay: Preemergence herbicidal evaluation; assay type: in vivo, Echinochloa crus-galli; details: rated 4-5 weeks after treatment
In short: as §2

[6] = system: ECHORC (Watergrass (Calif.)); assay: Preemergence weed control under flooded paddy conditions; assay type: in vivo, Echinochloa oryzoides; details: rated 3-4 weeks after treatment
In short: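 Visual injury scored 0-9 against control three to four weeks post-treatment, greenhouse-grown. Application: acetone/water (50/50) solutions dosed directly into flood water (1.5-3 cm over silt loam, planted top 0.5 cm), roughly 0.0313 to 0.500 kg/ha active ingredient.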

CYPSE (Flatsedge) = assay: as above; assay type: in vivo, Cyperus serotinus; details: rated 3-4 weeks after treatment
In short: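 Silt loam, seeds in top 0.5 cm; flood held 1.5-3 cm; test cpd as acetone/water 50/50 into flood water, ~0.0313-0.500 kg/ha a.i.; greenhouse 3-4 wk; visual 0-9 score vs control.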

[7] = system: ECHORC (Watergrass (Calif.)); assay: Postemergence weed control under flooded paddy conditions; assay type: in vivo, Echinochloa oryzoides; details: postemergence weeds, 3-4 weeks after treatment
In short: (§3)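 Flood-water application, about 0.0313–0.500 kg/ha a.i. in aqueous/acetone 50/50 v/v; water depth 1.5–3 cm throughout. Weeds 3–5 cm, rice 1.5–2.5 leaf. Greenhouse; 0–9 visual rating vs control at 3–4 wk.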

CYPIR (Rice Flatsedge) = assay: as above; assay type: in vivo, Cyperus iria; details: postemergence weeds, 3-4 weeks after treatment
In short: as §3

For `Cn1c(C(F)(F)F)cc(=O)n(-c2cc(N=C3SCC(=O)N3CC(=O)OC(C)(C)C)c(Cl)cc2F)c1=O` [Compound 43, tert-Butyl 2-{{2-chloro-5-[3,6-dihydro-3-methyl-2,6-dioxo-4-(trifluoromethyl)-1(2H)-pyrimidinyl]-4-fluorophenyl}imino}-4-oxo-3-thiazolidineacetate], the “Postemergence herbicidal rating ABUTH” value (ABUTH (Velvetleaf) [1]; Rate 0.0158 kg/ha) was 9.0, the “Postemergence herbicidal rating ABUTH” value (ABUTH (Velvetleaf) [1]; Rate 0.0315 kg/ha) was 9.0 and the “Postemergence herbicidal rating ABUTH” value (ABUTH (Velvetleaf) [1]; Rate 0.0630 kg/ha) was 9.0. For the same compound, the “Postemergence herbicidal rating IPOHE” value ([2]; Rate 0.0158 kg/ha) was 9.0, the “Postemergence herbicidal rating IPOHE” value ([2]; Rate 0.0315 kg/ha) was 9.0 and the “Postemergence herbicidal rating IPOHE” value ([2]; Rate 0.0630 kg/ha) was 9.0. For the same compound, the “Postemergence herbicidal rating SETVI” value (SETVI (Foxtail, Green); Rate 0.0158 kg/ha) was 3.0, the “Postemergence herbicidal rating SETVI” value (SETVI (Foxtail, Green); Rate 0.0315 kg/ha) was 3.0 and the “Postemergence herbicidal rating SETVI” value (SETVI (Foxtail, Green); Rate 0.0630 kg/ha) was 8.0. The “Postemergence herbicidal rating GLXMAW” value ([3]; Rate 0.0158 kg/ha) was 7.5, the “Postemergence herbicidal rating GLXMAW” value ([3]; Rate 0.0315 kg/ha) was 7.0 and the “Postemergence herbicidal rating GLXMAW” value ([3]; Rate 0.0630 kg/ha) was 7.0. The “Postemergence herbicidal rating ZEAMX” value (ZEAMX (Corn, Field); Rate 0.0158 kg/ha) was 4.5, the “Postemergence herbicidal rating ZEAMX” value (ZEAMX (Corn, Field); Rate 0.0315 kg/ha) was 5.0 and the “Postemergence herbicidal rating ZEAMX” value (ZEAMX (Corn, Field); Rate 0.0630 kg/ha) was 5.5. For the same compound, the “Preemergence herbicidal rating ABUTH” value (ABUTH (Velvetleaf) [4]; rate 0.0156 kg/ha) was 9.0, the “Preemergence herbicidal rating ABUTH” value (ABUTH (Velvetleaf) [4]; rate 0.0313 kg/ha) was 9.0 and the “Preemergence herbicidal rating ABUTH” value (ABUTH (Velvetleaf) [4]; rate 0.0625 kg/ha) was 9.0. For the same compound, the “Preemergence herbicidal rating ABUTH” value (ABUTH (Velvetleaf) [4]; rate 0.1250 kg/ha) was 9.0, the “Preemergence herbicidal rating ABUTH” value (ABUTH (Velvetleaf) [4]; rate 0.2500 kg/ha) was 9.0 and the “Preemergence herbicidal rating AMBEL” value (AMBEL (Ragweed, Common); rate 0.0156 kg/ha) was 0.0. For the same compound, the “Preemergence herbicidal rating AMBEL” value (AMBEL (Ragweed, Common); rate 0.0313 kg/ha) was 0.0, the “Preemergence herbicidal rating AMBEL” value (AMBEL (Ragweed, Common); rate 0.0625 kg/ha) was 0.0 and the “Preemergence herbicidal rating AMBEL” value (AMBEL (Ragweed, Common); rate 0.1250 kg/ha) was 3.0. For the same compound, the “Preemergence herbicidal rating AMBEL” value (AMBEL (Ragweed, Common); rate 0.2500 kg/ha) was 4.0, the “Preemergence herbicidal rating CASOB” value (CASOB (Sicklepod); rate 0.0156 kg/ha) was 0.0 and the “Preemergence herbicidal rating CASOB” value (CASOB (Sicklepod); rate 0.0313 kg/ha) was 0.0. The “Preemergence herbicidal rating CASOB” value (CASOB (Sicklepod); rate 0.0625 kg/ha) was 0.0, the “Preemergence herbicidal rating CASOB” value (CASOB (Sicklepod); rate 0.1250 kg/ha) was 8.0 and the “Preemergence herbicidal rating CASOB” value (CASOB (Sicklepod); rate 0.2500 kg/ha) was 9.0. For the same compound, the “Preemergence herbicidal rating IPOHE” value ([5]; rate 0.0156 kg/ha) was 0.0, the “Preemergence herbicidal rating IPOHE” value ([5]; rate 0.0313 kg/ha) was 0.0 and the “Preemergence herbicidal rating IPOHE” value ([5]; rate 0.0625 kg/ha) was 0.0. For the same compound, the “Preemergence herbicidal rating IPOHE” value ([5]; rate 0.1250 kg/ha) was 2.0, the “Preemergence herbicidal rating IPOHE” value ([5]; rate 0.2500 kg/ha) was 9.0 and the “Preemergence herbicidal rating ECHCG” value (ECHCG (Barnyardgrass); rate 0.0156 kg/ha) was 0.0. The “Preemergence herbicidal rating ECHCG” value (ECHCG (Barnyardgrass); rate 0.0313 kg/ha) was 0.0, the “Preemergence herbicidal rating ECHCG” value (ECHCG (Barnyardgrass); rate 0.0625 kg/ha) was 0.0 and the “Preemergence herbicidal rating ECHCG” value (ECHCG (Barnyardgrass); rate 0.1250 kg/ha) was 0.0. The “Preemergence herbicidal rating ECHCG” value (ECHCG (Barnyardgrass); rate 0.2500 kg/ha) was 5.0, the “Herbicidal rating ECHORC” value ([6]; 0.0313 kg/ha) was 5.0 and the “Herbicidal rating ECHORC” value ([6]; 0.0625 kg/ha) was 6.0. The “Herbicidal rating ECHORC” value ([6]; 0.1250 kg/ha) was 7.0, the “Herbicidal rating ECHORC” value ([6]; 0.2500 kg/ha) was 9.0 and the “Herbicidal rating CYPSE” value (CYPSE (Flatsedge); 0.0313 kg/ha) was 5.0. The “Herbicidal rating CYPSE” value (CYPSE (Flatsedge); 0.0625 kg/ha) was 5.0, the “Herbicidal rating CYPSE” value (CYPSE (Flatsedge); 0.1250 kg/ha) was 8.0 and the “Herbicidal rating CYPSE” value (CYPSE (Flatsedge); 0.2500 kg/ha) was 9.0. The “Herbicidal rating ECHORC” value ([7]; rate 0.0313 kg/ha) was 5.0, the “Herbicidal rating ECHORC” value ([7]; rate 0.0825 kg/ha) was 6.0 and the “Herbicidal rating ECHORC” value ([7]; rate 0.1250 kg/ha) was 7.0. The “Herbicidal rating ECHORC” value ([7]; rate 0.2500 kg/ha) was 9.0, the “Herbicidal rating CYPIR” value (CYPIR (Rice Flatsedge); rate 0.0313 kg/ha) was 0.0 and the “Herbicidal rating CYPIR” value (CYPIR (Rice Flatsedge); rate 0.1250 kg/ha) was 4.0. The “Herbicidal rating CYPIR” value (CYPIR (Rice Flatsedge); rate 0.2500 kg/ha) was 5.0.
